Data reported in PubChem BioAssay (NCI).
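Assay format: 96-well plates, 48-hour exposure. TGI marks complete inhibition of growth.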

Legend:
Experiment in all cases: NCI-60 cell line screen, 48 h
DU-145 prostate = system: DU-145 prostate
SK-MEL-28 melanoma = system: SK-MEL-28 melanoma
OVCAR-8 ovarian = system: OVCAR-8 ovarian
SK-MEL-5 melanoma = system: SK-MEL-5 melanoma
IGROV1 ovarian = system: IGROV1 ovarian
HCC-2998 colon = system: HCC-2998 colon
RXF 393 renal = system: RXF 393 renal
PC-3 prostate = system: PC-3 prostate
NCI-H522 lung = system: NCI-H522 lung
MCF7 breast = system: MCF7 breast

| SMILES | TGI (DU-145 prostate) | TGI (SK-MEL-28 melanoma) | TGI (OVCAR-8 ovarian) | TGI (SK-MEL-5 melanoma) | TGI (IGROV1 ovarian) | TGI (HCC-2998 colon) | TGI (RXF 393 renal) | TGI (PC-3 prostate) | TGI (NCI-H522 lung) | TGI (MCF7 breast) |
| --- | --- | --- | --- | --- | --- | --- | --- | --- | --- | --- |
| Cc1ccc2nc(Nc3ccccc3C)c(Nc3ccccc3C)nc2c1 | > 100 µM | > 100 µM | > 100 µM | > 63.8 µM | > 100 µM | 61.3 µM | > 58.1 µM | > 100 µM | 35.9 µM | > 100 µM |
| Fc1cccc(F)c1C1SCc2nc3cc(Cl)ccc3n21 (stereo not given) | > 100 µM | > 100 µM | > 100 µM | 30.3 µM | > 72.4 µM | 42.6 µM | > 100 µM | > 100 µM | > 100 µM | 34 µM |
| CN(C)C(=O)/N=C1\SC(=Nc2ccccc2)C(=Nc2ccccc2)N1c1ccc([N+](=O)[O-])cc1 | > 100 µM | > 100 µM | > 100 µM | > 100 µM | > 100 µM | > 100 µM | > 100 µM | > 100 µM | > 100 µM | > 100 µM |
| Cn1c2ccccc2c2c3c(=O)[nH][nH]c(=O)c3c3c4ccccc4n(C)c3c21 | > 100 µM | > 100 µM | > 100 µM | > 100 µM | > 100 µM | > 100 µM | > 100 µM | > 100 µM | > 100 µM | > 100 µM |
| Cc1nn(C(=O)c2ccccc2O)c2c1C(c1ccc([N+](=O)[O-])cc1)SC(N)=N2 (stereo not given) | > 10 µM | > 10 µM | > 10 µM | > 10 µM | > 10 µM | > 10 µM | > 10 µM | > 10 µM | > 10 µM | > 10 µM |
| COc1ccc(C(=C2C(=O)OC(=O)C2=C(C)C)c2ccc(OC)cc2)cc1 | > 100 µM | > 100 µM | > 100 µM | > 100 µM | > 100 µM | > 100 µM | > 100 µM | > 100 µM | 55.7 µM | > 100 µM |
| CCOC(=O)c1c(-c2ccc(OC)cc2)c(C#N)c(=S)n(C2OC(CO)C(O)C(O)C2O)c1C (stereo not given) | > 100 µM | > 100 µM | > 100 µM | > 100 µM | > 100 µM | > 100 µM | > 100 µM | > 100 µM | > 100 µM | > 100 µM |
| CC(C)(C)C#CI1OC(=O)c2ccccc21 | 17.8 µM | 17.8 µM | 23.3 µM | 15.5 µM | 12 µM | 23.6 µM | 30.4 µM | 19.5 µM | 3.82 µM | 15.4 µM |
| Clc1sc(Cl)c2c1[C@H](Br)C[C@@H]2Cl | > 100 µM | 71 µM | 99 µM | > 100 µM | 44.6 µM | > 100 µM | 87.6 µM | > 100 µM | 33.5 µM | 50.8 µM |
| O=C1C=CC(=O)c2c(O)c(N3CCN(c4ncccn4)CC3)c(Cl)c(O)c21 | 12.9 µM | 4.57 µM | 6.37 µM | 3.79 µM | 3.43 µM | 25.7 µM | 3.51 µM | 8.88 µM | 4.42 µM | 3.32 µM |
| CCCCCc1cc(CCCC)sc1-c1ccco1 | > 100 µM | > 100 µM | > 100 µM | > 100 µM | > 100 µM | > 100 µM | > 100 µM | > 100 µM | > 100 µM | > 100 µM |
| C[N+]1(CCCCN2c3ccccc3Sc3cc(N=[N+]=[N-])ccc32)CCN(C(=O)CCNC(=O)Cc2ccc(C(=O)c3ccccc3)cc2)CC1 | 35.1 µM | 46.4 µM | > 100 µM | > 62.6 µM | > 77.6 µM | 39.9 µM | > 80 µM | 40.7 µM | > 76.9 µM | 68 µM |
| CC1=CC(O)CC(C)(C)C1/C=C/C(C)=C/C=C/C(C)=C/C=C/C=C(C)/C=C/C=C(C)/C=C/C1=C(C)CC(O)CC1(C)C (stereo not given) | > 100 µM | 31.4 µM | 39.5 µM | 32.7 µM | 66.3 µM | > 100 µM | 33.2 µM | 62.6 µM | 30 µM | 77.7 µM |
| COC(=O)Cc1c2n(c3ccccc13)C(=O)N1c3ccccc3C(CC(=O)OC)C21 (stereo not given) | > 100 µM | > 100 µM | > 100 µM | > 100 µM | 71.6 µM | > 100 µM | 64 µM | > 100 µM | > 100 µM | > 100 µM |
| O=C1c2c(Br)sc(Br)c2[C@H]2OC(=S)N[C@@H]12 | 26.9 µM | 7.94 µM | 12 µM | 23.8 µM | 23.9 µM | 22.4 µM | 8.8 µM | 14 µM | 3.4 µM | 23.2 µM |
